Data taken from paper PMC12300231, “Ferroptosis Among the Antiproliferative Pathways Activated by a Lipophilic Ruthenium(III) Complex as a Candidate Drug for Triple-Negative Breast Cancer” (Pharmaceutics, 2025).

Tests used:
MDA-MB-231 cells = test: Mitochondria morphological analysis by confocal microscopy (MitoTracker Red); format: cell-based, Human; settings: MDA-MB-231, 48 h, cDDP 10 µM or Erastin 10 µM, vs untreated cells
Procedure: Morphological changes in the mitochondria of MDA-MB-231 cells after treatments in vitro were determined using the MitoTracker Red CMXRos selective probe (Ex\Em 579/599 nm). Briefly, 1.5 × 10^4 cells were seeded in a four-well µ-Slide and incubated for 48 h. Then, cells were treated with the IC50 concentration of PalmiPyRu, cDDP (10 µM) or Erastin (10 µM), respectively, for a further 48 h. After incubations, cells were treated with FBS-free medium containing 100 nM MitoTracker at 37 °C for 20 min. To label the nuclei, a DAPI (Ex/Em 358/461 nm) solution (1:1000) was used at room temperature for 10 min of incubation. Fluorescence images were captured using a confocal microscope (Zeiss LSM 900 Airyscan 2) with a 63× magnification (oil-immersion objective).

MDA-MB-231 = test: Cell survival index (MTT assay plus automated cell count), IC50; format: cell-based, Human; settings: MDA-MB-231 TNBC cells, 48 h of incubation, mean ± SEM (n = 15)
Procedure: (§1) The antiproliferative activity was evaluated by estimating a “cell survival index” through targeted bioscreens, which joins cell viability assessment (by the MTT functional assay) with automated cell count (quantitative assay by automatic cell counter). Specifically, the “cell survival index” is calculated as the arithmetic average between the percentage values derived from the MTT assay and automated cell counting. For in vitro treatments, TNBC cell lines (MDA-MB-231, Hs 578T and BT-549) were seeded into 96-well culture plates at a density of 10^4 cells/well and allowed to grow for 24 h. The culture medium was then replaced with fresh medium, and the cells were treated with PalmiPyRu at concentrations ranging from 5 to 150 μM for different times, depending on the type of experiment. Cisplatin (cDDP) was used as a reference drug (positive control).
(§2) The same experimental setup in vitro was applied to assess the biocompatibility of PalmiPyRu on healthy control cell lines (HDFas, HHFKs, HaCaTs and […]). Cell viability was measured using the MTT assay (Sigma, Milan, Italy), which evaluates mitochondrial redox capacity to convert dissolved MTT into insoluble purple formazan. Briefly, after treatments, the medium was removed, and cells were incubated with 20 μL/well of MTT solution (5 mg/mL) for 1 h at 37 °C in a humidified 5% CO2 incubator. […] Finally, absorbance was measured at 550 nm using a microplate reader (ThermoFisher, Waltham, MA, USA). Total cell counting was determined using the TC20 automated cell counter (Bio-Rad, Milan, Italy), which provides accurate and reproducible total cell counts and a live/dead ratio in a single step using a specific dye exclusion assay (Trypan Blue). […] The mixture was loaded into disposable slide chamber and analyzed. The instrument provided a total cell count (cells/mL), live cell count and percent viability, automatically adjusting for dilution if Trypan Blue was detected. […]
(§3) All subsequent in vitro experiments were performed using PalmiPyRu IC50 concentrations, calculated as previously described.

Hs578T = test: as above; format: cell-based, Human; settings: Hs578T TNBC cells, 48 h of incubation, mean ± SEM (n = 15)
Procedure: as §1, §2, §3

BT-549 = test: as above; format: cell-based, Human; settings: BT-549 TNBC cells, 48 h of incubation, mean ± SEM (n = 15)
Procedure: as §1, §2, §3

HDFa = test: Cell survival index, biocompatibility on healthy cells; format: cell-based; settings: 48 h of incubation, mean ± SEM (n = 15)
Procedure: as §1, §2, §3

MCF-10A = test: as above; format: cell-based; settings: MCF-10A healthy cells, 48 h of incubation, mean ± SEM (n = 15)
Procedure: as §1, §2, §3

HHFK = test: as above; format: cell-based; settings: 48 h of incubation, mean ± SEM (n = 15)
Procedure: as §1, §2, §3

HaCaT = test: as above; format: cell-based, Human; settings: 48 h of incubation, mean ± SEM (n = 15)
Procedure: The antiproliferative activity was evaluated by estimating a “cell survival index” through targeted bioscreens, which joins cell viability assessment (by the MTT functional assay) with automated cell count (quantitative assay by automatic cell counter). Specifically, the “cell survival index” is calculated as the arithmetic average between the percentage values derived from the MTT assay and automated cell counting. For in vitro treatments, TNBC cell lines (MDA-MB-231, Hs 578T and BT-549) were seeded into 96-well culture plates at a density of 10^4 cells/well and allowed to grow for 24 h. […]
as §2, with “formazan.” for “formazan. Briefly, after treatments, the medium was removed, and cells were incubated with 20 μL/well of MTT solution (5 mg/mL) for 1 h at 37 °C in a humidified 5% CO2 incubator.”, “analyzed.” for “analyzed. The instrument provided a total cell count (cells/mL), live cell count and percent viability, automatically adjusting for dilution if Trypan Blue was detected.”

Row | SMILES | Mitochondrial red fluorescent signal (MitoTracker) (MDA-MB-231 cells) | IC50 (MDA-MB-231) [µM] | IC50 (Hs578T) [µM] | IC50 (BT-549) [µM] | IC50 (HDFa) [µM] | IC50 (MCF-10A) [µM] | IC50 (HHFK) [µM] | IC50 (HaCaT) [µM]
1 | CCOc1ccccc1-n1c(C(C)N2CCN(C(=O)COc3ccc(Cl)cc3)CC2)nc2ccccc2c1=O (stereo not drawn) [Erastin] | lowered the mitochondrial fluorescent signal | – | – | – | – | – | – | –
2 | [NH2][Pt]([NH2])([Cl])[Cl] [cDDP, cisplatin] | significantly reduced | 11 ± 3 | 20 ± 4 | 15 ± 2 | 72 ± 4 | 88 ± 3 | 93 ± 3 | 50 ± 3
